The OligoGym collection
HELM strings list units from the 5' end as sugar, base in round brackets, then linkage (d deoxyribose, r ribose, m 2'-O-methyl, p phosphodiester). Strings are as the collection lists them, not checked against the first reports. ss, as = sense and antisense strand

Conditions: siRNA
Further: test system not given here.

Substance	target mRNA knockdown [%]
RNA1{m(G)p.m(G)p.m(A)p.r(C)p.r(U)p.m(A)p.r(C)p.r(U)p.m(A)p.m(A)p.r(C)p.r(C)p.r(U)p.r(C)p.r(C)p.m(A)p.m(G)p.r(U)p.r(U)p.r(T)p.r(T)}|RNA2{r(A)p.r(A)p.r(C)p.r(U)p.r(G)p.r(G)p.r(A)p.r(G)p.r(G)p.r(U)p.r(U)p.r(A)p.r(G)p.r(U)p.r(A)p.r(G)p.r(U)p.r(C)p.r(C)p.r(T)p.r(T)}$$$RNA1{StrandType:ss}|RNA2{StrandType:as}$	65
RNA1{m(G)p.r(A)p.m(A)p.r(A)p.m(A)p.r(C)p.m(G)p.r(C)p.m(U)p.r(U)p.m(G)p.r(U)p.m(A)p.r(A)p.m(A)p.r(G)p.m(C)p.r(C)p.m(G)p.r(T)p.r(T)}|RNA2{r(C)p.r(G)p.r(G)p.r(C)p.r(U)p.r(U)p.r(U)p.m(A)p.r(C)p.m(A)p.m(A)p.r(G)p.r(C)p.r(G)p.r(U)p.r(U)p.r(U)p.r(U)p.r(C)p.r(T)p.r(T)}$$$RNA1{StrandType:ss}|RNA2{StrandType:as}$	23
RNA1{m(G)p.r(A)p.m(A)p.r(A)p.m(C)p.r(U)p.m(G)p.r(G)p.m(U)p.r(A)p.m(C)p.r(U)p.m(U)p.r(U)p.m(C)p.r(C)p.m(C)p.r(C)p.m(C)p.r(T)p.r(T)}|RNA2{r(G)p.r(G)p.r(G)p.r(G)p.r(G)p.r(A)p.r(A)p.r(A)p.r(G)p.r(U)p.r(A)p.r(C)p.r(C)p.r(A)p.r(G)p.r(U)p.r(U)p.r(U)p.r(C)p.r(T)p.r(T)}$$$RNA1{StrandType:ss}|RNA2{StrandType:as}$	57
RNA1{m(G)p.r(A)p.m(A)p.r(G)p.m(A)p.r(G)p.m(C)p.r(C)p.m(U)p.r(A)p.m(C)p.r(A)p.m(C)p.r(A)p.m(A)p.r(C)p.m(C)p.r(C)p.m(U)p.r(T)p.r(T)}|RNA2{r(A)p.m(G)p.m(G)p.m(G)p.r(U)p.r(U)p.m(G)p.r(U)p.m(G)p.r(U)p.r(A)p.m(G)p.m(G)p.r(C)p.r(U)p.r(C)p.r(U)p.r(U)p.r(C)p.r(T)p.r(T)}$$$RNA1{StrandType:ss}|RNA2{StrandType:as}$	43
RNA1{m(G)p.r(A)p.m(A)p.r(G)p.m(A)p.r(G)p.m(C)p.r(C)p.m(U)p.r(A)p.m(C)p.r(A)p.m(C)p.r(A)p.m(A)p.r(C)p.m(C)p.r(C)p.m(U)p.r(T)p.r(T)}|RNA2{r(A)p.r(G)p.r(G)p.r(G)p.r(U)p.r(U)p.r(G)p.r(U)p.m(G)p.r(U)p.m(A)p.r(G)p.m(G)p.r(C)p.m(U)p.r(C)p.m(U)p.r(U)p.m(C)p.r(T)p.r(T)}$$$RNA1{StrandType:ss}|RNA2{StrandType:as}$	50
RNA1{m(G)p.r(A)p.m(A)p.r(G)p.m(A)p.r(G)p.m(U)p.r(U)p.m(A)p.r(A)p.m(C)p.r(C)p.m(C)p.r(G)p.m(G)p.r(G)p.m(A)p.r(C)p.r(U)p.r(T)p.r(T)}|RNA2{r(A)p.r(G)p.r(U)p.r(C)p.r(C)p.r(C)p.r(G)p.r(G)p.r(G)p.r(U)p.r(U)p.r(A)p.r(A)p.r(C)p.r(U)p.r(C)p.r(U)p.r(U)p.r(C)p.r(T)p.r(T)}$$$RNA1{StrandType:ss}|RNA2{StrandType:as}$	17
RNA1{m(G)p.r(A)p.m(A)p.r(G)p.m(G)p.r(G)p.m(G)p.r(A)p.m(A)p.r(A)p.m(U)p.r(C)p.m(U)p.r(G)p.m(U)p.r(G)p.m(G)p.r(U)p.m(U)p.r(T)p.r(T)}|RNA2{r(A)p.r(A)p.r(C)p.r(C)p.r(A)p.r(C)p.r(A)p.r(G)p.r(A)p.r(U)p.r(U)p.r(U)p.r(C)p.r(C)p.r(C)p.r(C)p.r(U)p.r(U)p.r(C)p.r(T)p.r(T)}$$$RNA1{StrandType:ss}|RNA2{StrandType:as}$	41
RNA1{m(G)p.r(A)p.m(A)p.r(U)p.m(A)p.r(A)p.m(C)p.r(C)p.m(U)p.r(G)p.m(A)p.r(A)p.m(C)p.r(G)p.m(U)p.r(C)p.m(A)p.r(C)p.m(C)p.r(T)p.r(T)}|RNA2{r(G)p.r(G)p.r(U)p.r(G)p.m(A)p.r(C)p.r(G)p.r(U)p.r(U)p.r(C)p.m(A)p.r(G)p.r(G)p.r(U)p.r(U)p.m(A)p.r(U)p.r(U)p.r(C)p.r(T)p.r(T)}$$$RNA1{StrandType:ss}|RNA2{StrandType:as}$	21
